Data taken from ChEMBL document CHEMBL4007403, “Identification of Triazolothiadiazoles as Potent Inhibitors of the dCTP Pyrophosphatase 1” (J Med Chem, 2017).

Key:
[1] = biological target: T1, dCTP pyrophosphatase 1 (Homo sapiens, UniProt Q9H773); assay: Inhibition of recombinant human N-terminal His-tagged dCTPase 1 expressed in Escherichia coli BL21(DE3)pLysS using dCTP as substrate after 1 hr by malachite green reagent based assay
T1 sequence (Q9H773 whole entry): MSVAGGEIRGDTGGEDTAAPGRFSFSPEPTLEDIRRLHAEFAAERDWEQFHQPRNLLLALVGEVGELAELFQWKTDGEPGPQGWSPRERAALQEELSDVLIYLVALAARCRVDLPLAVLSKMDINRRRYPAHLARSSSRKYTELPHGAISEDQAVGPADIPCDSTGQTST

[2] = Stability of the compound in DMSO measured after several months by HPLC-MS analysis; type: physicochemical
[3] = Stability of the compound in biochemical assay buffer under mildly acidic mobile phase conditions by HPLC-MS analysis; type: physicochemical
[4] = Stability of the compound in biochemical assay buffer under basic mobile phase conditions by HPLC-MS analysis; type: physicochemical

SMILES	IC50 [1] [nM]	Stability [2]	Stability [3]	Stability [4]
Ic1ccccc1-c1nn2c(-c3ccccn3)nnc2s1	505	Stable	Stable	Stable
c1ccc(CCCCc2nn3c(-c4ccccn4)nnc3s2)cc1	1370	Stable	Stable	Stable
Fc1cccc(-c2nn3c(-c4ccccn4)nnc3s2)c1	357	Stable	Stable	Stable
Cc1ccccc1-c1nn2c(-c3cnccn3)nnc2s1	691	Stable	Stable	Stable
c1ccc(-c2nnc3sc(-c4cc5ccccc5o4)nn23)nc1	401	Stable	Stable	Stable
Clc1ccccc1-c1nn2c(-c3ccccn3)nnc2s1	440	Stable	Stable	Stable
COc1cc(OC)cc(-c2nn3c(-c4ccccn4)nnc3s2)c1	276	Stable	Stable	Stable
c1coc(-c2nnc3sc(-c4cccs4)nn23)c1	704	Stable	Stable	Stable
Cc1onc(-c2cccs2)c1-c1nn2c(-c3ccco3)nnc2s1	1030	Stable	Stable	Stable
Cc1ccc(-c2nn3c(-c4ccccn4)nnc3s2)cc1	469	Stable	Stable	Stable
Clc1ccc(-c2nn3c(-c4ccccn4)nnc3s2)c(Cl)c1	419	Stable	Stable	Stable
COc1cccc(-c2nn3c(-c4ccncc4)nnc3s2)c1	> 10000	Stable	Stable	Stable
c1ccc(-c2nnc3sc(-c4ccc5ccccc5c4)nn23)nc1	95	Stable	Stable	Stable
CCCCc1nnc2sc(-c3cc(C)nc4ccccc34)nn12	5610	Stable	Stable	Stable
Cc1ccc(-c2nn3c(-c4ccccn4)nnc3s2)cc1C	227	Stable	Stable	Stable
COc1ccccc1-c1nn2c(-c3ccccn3)nnc2s1	1030	Stable	Stable	Stable
C(=C\c1cccnc1)/Cc1nn2c(-c3ccco3)nnc2s1	453	Stable	Stable	Stable
c1ccc(-c2nn3c(-c4ccco4)nnc3s2)cc1	592	Stable	Stable	Stable
Cc1ccccc1-c1nn2c(-c3ccccn3)nnc2s1	505 to 746	Stable	Stable	Stable
CCOc1ccc(-c2nn3c(-c4ccccn4)nnc3s2)cc1OCC	1170	Stable	Stable	Stable
Cc1cccc(-c2nn3c(-c4ccccn4)nnc3s2)c1	449	Stable	Stable	Stable

SMILES	IC50 [1] [nM]	Stability [2]	Stability [3]	Stability [4]
COc1ccc(-c2nn3c(-c4ccccc4F)nnc3s2)cc1	208	Stable	Stable	Stable
CCOc1ccc(-c2nn3c(-c4ccccn4)nnc3s2)cc1	449	Stable	Stable	Stable
COc1cccc(-c2nn3c(-c4ccccn4)nnc3s2)c1	1880	Stable	Stable	Stable
Brc1cccc(-c2nn3c(-c4ccccn4)nnc3s2)c1	602	Stable	Stable	Stable
Brc1ccc(-c2nn3c(-c4ccccn4)nnc3s2)cc1	164	Stable	Stable	Stable
Cc1cc(-c2nn3c(-c4ccccn4)nnc3s2)c2ccccc2n1	314	Stable	Stable	Stable
Fc1ccccc1-c1nn2c(-c3ccccn3)nnc2s1	670	Stable	Stable	Stable
COc1ccc(-c2nn3c(-c4cccnc4)nnc3s2)cc1	2610	Stable	Stable	Stable
c1coc(-c2nnc3sc(-c4ccc5ccccc5n4)nn23)c1	177	Stable	Stable	Stable
CCCc1nnc2sc(-c3ccc(OC)cc3)nn12	6970	Stable	Stable	Stable
c1ccc(-c2nn3c(-c4ccccn4)nnc3s2)cc1	619	Stable	Stable	Stable
Brc1ccccc1-c1nn2c(-c3ccccn3)nnc2s1	328	Stable	Stable	Stable
COc1cccc(-c2nnc3sc(-c4ccncc4)nn23)c1	1020	Stable	Stable	Stable
C(=C\c1cccnc1)/Cc1nn2c(-c3ccccc3)nnc2s1	558	Stable	Stable	Stable
CCc1cc(-c2nnc3sc(-c4ccccc4)nn23)n(C)n1	> 10000	Stable	Stable	Stable
Clc1ccc(-c2nn3c(-c4ccccn4)nnc3s2)cc1	204	Stable	Stable	Stable
COc1ccc(-c2nn3c(-c4ccccn4)nnc3s2)cc1	282 to 316	Stable	Stable	Stable
Fc1ccc(-c2nn3c(-c4ccccn4)nnc3s2)cc1	332	Stable	Stable	Stable
C=CCOc1ccc(-c2nn3c(-c4ccccn4)nnc3s2)cc1	1210	Stable	Stable	Stable
c1ccc(-c2nnc3sc(-c4cccnc4)nn23)nc1	233	Stable	Stable	Stable
CN(C)c1cccc(-c2nn3c(-c4ccccn4)nnc3s2)c1	277	Stable	Stable	Stable
